Patent publication US20080058281A1, “Skin Lightening Compositions Comprising Vitamines and Flavonoids” (priority 2004, published 2008)

Tested on: Melanoderm (MatTek MEL-300-B) tissue, epidermal keratinocytes (NHEK) and melanocytes (NHM)
Experiment: Melanoderm system: quantification of light (alkali-soluble) and dark (alkali-insoluble) melanin
Assay type: cell-based, human
Settings: for Total Melanin: Melanoderm tissue, agents in medium at Table 1 concentrations (Pycnogenol 10 μg/ml, Vit C 30 μg/ml, Vit E 1 μM, Vit B12 1 ng/ml, Vit A 15 ng/ml, cysteine 10 μg/ml, niacinamide 10 μg/ml), control 6.93; for Ratio of light melanin (μg/g)/dark melanin (μg/g) / Dark Melanin / Light Melanin / Dark Melanin, change relative to control / Light Melanin, change relative to control: Table 1 concentrations; for Ratio of light melanin (μg/g)/dark melanin (μg/g): control 0.14; for Dark Melanin: alkali-insoluble melanin, control 6.08; for Dark Melanin / Light Melanin: OD 340 nm; for Light Melanin: alkali-soluble melanin, control 0.85; for Dark Melanin, change relative to control: value in brackets under Dark Melanin; for Light Melanin, change relative to control: value in brackets under Light Melanin
Experimental: In these examples, evaluation of the ability of various agents, individually and in combination, to influence levels of dark and light melanin was tested using the commercially available Melanoderm™ system.
The MelanoDerm™ MatTeks system consists of normal, human-derived epidermal keratinocytes (NHEK) and melanocytes (NHM) which have been cultured to form a multilayered, highly differentiated model of the human epidermis. The NHM within co-cultures undergo spontaneous melanogenesis leading to tissues of varying levels of pigmentation. The tissues are produced using serum free medium without artificial stimulators of melanogenesis such as TPA and IBMX. The cultures are grown on cell culture inserts at the air-liquid interface, allowing for simulated topical application of agents to be tested. Introduction of agents into the medium simulates systemic application.
On delivery, the melanoderms (MatTek MEL-300-B) were placed onto metal ring supports in a 6 well plate containing 5 ml of pre-warmed maintenance media (of EPI-100-MM-PRF), using aseptic technique as per MatTek's protocol. Incubation was carried out overnight at 37° C. and 4% CO2 to allow the melanoderms to recover and equilibrate fully. Once placed under these conditions the MEL-300 tissue, undergo melanogenesis and differentiation.
Treatment was initiated on the following morning. Agents to be tested were dissolved in appropriate solvents and added to warmed media at final concentrations pre-assessed for melanocyte toxicity. Each time the media was changed, the spent media was aspirated from the melanoderms and reserved for testing for toxicity (Lactate Dehydrogenase (Promega)) and Interleukin-1 release (R&D systems) and replaced with a fresh dose of media plus test agents whether within the media of the melanoderm. Melanoderms were returned to the incubator.
On observation of differences in darkening, microscopic and macroscopic darkening were recorded photographically. Harvesting the tissue of the melanoderm involved cutting away the tissue from its plastic support and was followed by quantification of melanin present post-treatment versus untreated.
Melanoderm samples were cut from the plastic holders and the wet weight of tissue measured. 200 μl 1M NaOH/8M urea was added to the melanoderm sample the tissue homogenised in a microfuge tube. Samples were whirlimixed at RT for 30 minutes on and off to release the soluble melanin. Samples were centrifuged at 13,000 rpm for 10 minutes and supernatant containing soluble melanin was removed to a fresh tube.
Protein was extracted from the supernatant by addition of 200 μl chloroform and then by mixing vigorously for 1 minute. Phases were separated by centrifugation at 13,000 rpm for 10 minutes. 150 μl of supernatant was added to a microtitre plate (in duplicate) and the OD 340 nm ascertained.
1M NaOH was added to the remaining pellet which contains the insoluble melanin and the sample vortexed for one minute. The sample was then incubated in a water bath at 37° C. for 96 hrs with daily mixing to released the insoluble melanin. The sample was centrifuged for 10 minutes at 13,000 rpm with 200 μl of chloroform and 190 μl of the supernatant taken to a fresh tube. The supernatant was centrifuged again and 150 μl removed to a microtitre plate for analysis of absorption at 340 nm.
Absolute melanin is calculated as the actual melanin quantity calculated from a previously determined light melanin standard curve: x=(y−0.003)/4.76423 (where x=concentration of melanin and y=optical density at 340 nm).

| Molecule | Total Melanin [µg/g] | Ratio of light melanin (μg/g)/dark melanin (μg/g) | Dark Melanin [µg/g] | Light Melanin [µg/g] | Dark Melanin, change relative to control | Light Melanin, change relative to control |
| --- | --- | --- | --- | --- | --- | --- |
| N[C@@H](CS)C(=O)O [Cysteine] | 5.96 | 0.13 | 5.27 | 0.69 | (−13.3%) | (−18.8%) |
| NC(=O)c1cccnc1 [Niacinamide] | 8.10 | 0.13 | 7.16 | 0.94 | (+17.8%) | (+10.6%) |
| Vitamin A | 7.81 | – | 6.71 | – | – | – |
| Vitamin B12 | 7.93 | 0.19 | 6.66 | 1.27 | (+9.5%) | (+49.4%) |
